The text below walks through data of US20070238757A1, “NOVEL TREATMENT” (SmithKline Beecham p.l.c., priority 2000, published 2007).

The subject of the experiment is rat primary hippocampal neurons. Put plainly: Neurite outgrowth assay in primary hippocampal neurons. It counts as cell-based. Conditions: 48 hours, FIG. 2. The protocol: The hippocampi of gestational day 18 rat embryos were dissected out, incubated in trypsin (0.08%, 30 min at 37° C.) and dissociated mechanically (Skaper et al., 19990). Hippocampal cells were resuspended in neurobasal medium supplemented with B27, anti-oxidants, 1 mM glutamine, 25 μM glutamate, 1 mM pyruvate, +/−Compound 1 (10 nM-5 μM) or vehicle (DMSO) control.
For outgrowth assays, cells were plated at a density of 3000 cells/well into 96 well dishes that had previously been coated with poly-D-lysine followed by 10% FCS. For RNA isolation, cells were plated at 1×10^6 cells/well into a 35 mm tissue culture dish that had previously been coated with poly-D-lysine followed by 10% FCS.
Compound (I) was solubilised in DMSO and added to culture medium at time of cell plating at a dilution of 1:1000. Vehicle only (1:1000) was added to culture medium of untreated controls. […] Assays were quantified using a KS300 image analysis system (Imaging Associates, UK). For each cell measured, the length from the edge of the cell to the end of the longest neurite was measured for 100 cells/well for each treatment in triplicate. […] Results are expressed as a percentage of the length of neurites of cells treated with vehicle alone.
# Compound (I) at 0.01 and 0.05 μM has been analysed in one experiment only (n=3)

SMILES strings stand for the structures.

Regarding `CN(CCOc1ccc(CC2SC(=O)NC2=O)cc1)c1ccccn1` (centres unmarked) [Compound (I), 5-(4-[2-(N-methyl-N-(2-pyridyl)amino)ethoxy]benzyl)-2,4-thiazolidinedione], the “neurite outgrowth (effect in words)” value (10 nM-5 μM added at time of cell plating) is “increases neurite outgrowth in rat primary hippocampal neurons in a dose dependant manner”. Also, the “increase of neurite outgrowth over untreated controls” value (Compound at 100 nM, length of longest neurite relative to cells treated with vehicle (DMSO) alone) is given as “approx. 50%”.
